Laboratory results taken from patent US6479046B2, “Attractants and repellants for colorado potato beetle” (priority 2000, dated 2002).

test system: CPB; assay: not given; conditions: Schütz et al. (1997); cited from earlier work

Compound | attraction of CPB to leaves sprayed with paraffin solutions (in words)
benzene methanol | attractive
C=CC(=C)CCC=C(C)C [β-myrcene] | reduced attraction
OCCc1ccccc1 [2-benzene-ethanol] | attractive
CCCCC/C=C\CCO [(Z)-3-nonen-1-ol] | reduced attraction
C=CC(C)(O)CCC=C(C)C (stereo not shown) [linalool] | attractive
C=C1CC/C=C(\C)CC[C@@H]2[C@@H]1CC2(C)C [β-caryophyllene] | attractive
CCCCCCCCC=O [nonanal] | reduced attraction

test system: Colorado potato beetle (CPB) adults; assay: open Y-track olfactometer dual choice bioassay, adult beetles; assay type: in vivo, Leptinotarsa decemlineata; conditions: not given
Text: Insects: Adult Colorado potato beetles (CPB) were obtained from a laboratory colony which was annually infused with feral insects. CPB were maintained on potato, S. tuberosum cultivar Kennebeck, for both larval and adult stages. Upon emergence, adults were sexed; individual insects were kept in plastic containers with fresh potato foliage and water until use six to 12 days post emergence. Prior to testing, CPB were starved for two to three hours. Experimental insects were used only once.
Odorous blends tested are described in Table 3.
Plant stimuli consisted of 4.8 g of leaves from mature plants that were mechanically-damaged using scissors to make incisions ca. 1 cm in length at ca. 1 cm intervals around the circumference of leaves. Foliage used in the study were, potato, S. tuberosum cultivar Kennebeck (Solanaceae); tomato, Lycopersicon esculentum Mill cultivar Pik Red (Solanaceae); and soybean, Glycines maxcultivar Williams (Leguminaceae).
Experimental protocol: Chemical blends and plant foliage were tested for behavioral activity in an open Y-track olfactometer modified after Visser et al. (Visser, J. H., et al., Proceedings of the Section Experimental and Applied Entomology of the Netherlands Entomological Society Amsterdam, 9: 41-46 (1998); and described in detail by Dickens (Dickens, J. C., Agricultural and Forest Entomology, 1: 47-54 (1999)). In brief, odorous stimuli emanating from synthetic blends on filter paper discs (2.5 cm dia., Whatman™ #1 filter paper) or mechanically-damaged plant foliage in Ehrlenmeyer flasks were delivered to either side of the device. For each blend, a total amount of 25 μl of neat chemicals were diluted in 1 ml of mineral oil (25 μg total chemicals/μl mineral oil). […]
Statistical analysesLaboratory bioassays were assessed for significant differences by the hypothesis on binomial proportions based on the standard normal approximation (Brase, C. H., et al., Understanding Statistics, D. C. Heath and Co., Lexington, Mass., XIV +489 pp. (1983)).

Compound | behavioral response of CPB to treatment versus control (in words)
CC/C=C\CCOC(C)=O [XIV, (Z)-3-hexenyl acetate] | unattractive
C=CC(C)(O)CCC=C(C)C (single isomer, unassigned; (+)) [XV, (+)-linalool] | unattractive
COC(=O)c1ccccc1O [XVI, methyl salicylate] | unattractive
